The record followed here is patent US7989495B2, “Compositions and methods for inhibiting NF-κB mediated tumorigenicity and adhesion dependent survival of cancer cells” (University of Utah Research Foundation, priority 2002, dated 2011).

Holding throughout (format): cell-based
The test system of one experiment is 293-COX-2 cells. Kind of experiment: Apoptosis of 293 cells with ponasterone-inducible COX-2. The conditions noted are these: 8 hours. How it is done: The transiently suspended cells were lysed and allowed to bind to DNA oligonucleotides, containing the NF-κB consensus binding site, that were immobilized to 96-well plates. NF-κB protein bound to the oligonucleotides was detected by an antibody to the p65 subunit that only recognized p65 that is bound to DNA. The positive control was HeLa cells that were stimulated with TNFα A control was performed using excess free NF-κB oligonucleotides (Competitor). […] NF-κB binding activity was determined by the TransAM assay as in FIG. 5A. […] The data shown represent typical results of three separate experiments. […] An immunoblot for COX-2 was performed.
DLD-1, HCT-116, and HT-29 colon cancer cell lines were obtained from the ATCC collection and were cultured in Dulbecco's Modification of Eagle's Medium supplemented with 10% fetal bovine serum, glutamine, penicillin, and streptomycin. […]
Single cell suspensions were plated at 100,000 cells per well in 24-well plates in media containing DMSO, BAY 11-7082, BAY 11-7085, or MG-132 for 8-24 hours in an incubator. […] 400 μl of binding buffer was added to each tube and the cells were analyzed by flow cytometry immediately. The percent of apoptosis was determined as the percent of annexin V-positive, propidium iodide-negative cells of the total cells counted. […]

Experiment [1] relates to transiently suspended Caco-2 cells. Kind of experiment: Apoptosis (annexin V) of transiently suspended cells allowed to readhere. Particulars: treated. How it is done: Single cell suspensions were plated at 100,000 cells per well in 24-well plates in media containing DMSO, BAY 11-7082, BAY 11-7085, or MG-132 for 8-24 hours in an incubator. Alternatively, DMSO, BAY 11-7082, BAY 11-7085, or MG-132 were added to cells that were confluent and adherent for several days. The nonadherent cells were aspirated off with the media and spun for 3 minutes at 2,000 rpm in 15 ml polypropylene tubes. The adherent cells were washed twice with PBS, dispersed in trypsin, and spun down for 3 minutes at 2,000 rpm in 15 ml polypropylene tubes. The nonadherent and adherent cells were resuspended in 1× binding buffer (10 mM HEPES/NaOH, pH 7.4, 140 mM NaCl, and 2.5 mM CaCl2) to a final concentration of 10^6 cells/ml. […] 400 μl of binding buffer was added to each tube and the cells were analyzed by flow cytometry immediately. The percent of apoptosis was determined as the percent of annexin V-positive, propidium iodide-negative cells of the total cells counted.
Since trypsin can activate protease-activated receptor-2 in colon cancer cell lines, which then results in increased cell proliferation, (Darmoul et al., 2001) NF-κB activation was determined in adherent and confluent DLD-1, HCT-116, Caco-2 and HT-29 cells that were removed from plastic dishes by trypsin or scraping. […]

For a further experiment, the system named is HT-29 cells. Description: One-hour cell adhesion assay (crystal violet). The conditions noted are these: HT-29 pretreated three days (3 hours elsewhere in the source) with various concentrations. The protocol: The data points represent the average percent of annexin V-positive, propidium iodide-negative cells (of the total cells counted) from triplicate experiments. The error bars represent the standard error of the means. […] The results shown are a graphic representation of individual flow cytometry results expressed as the percentage of cells that were annexin V-positive of those that excluded propidium iodide. […] An immunoblot of the lysates for cleaved PARP was performed. Each lane represents equal total protein concentrations. […] The cells were allowed to adhere to plastic dishes for 1 hour after which they were washed gently in PBS and stained with crystal violet. The crystal violet stained cells were solubilized in deoxycholate and the absorbance detected in a spectrophotometer at 590 nm. The adherent cells were expressed as a fraction of the controls Each data point represents the average of triplicate experiments and the error bars the standard errors of the means.
Even though BAY 11-7085 induced a loss of cell adhesion, it was important to show whether HT-29 cells were actually susceptible to anoikis.

Turning to `CC(C)(C)c1ccc(S(=O)(=O)/C=C/C#N)cc1` [BAY 11-7085, (2E)-3-[4-(tertiarybutylphenyl)sulfonyl]-2-propenenitrile], the apoptosis following treatment entry was “marked increase in BAY 11-7085-induced apoptosis” with 293-COX-2 cells (ponasterone-induced (1 μg/ml, 48 hours) 293-COX-2 cells) and “no increase in apoptosis” with 293-COX-2 cells (uninduced 293-COX-2 cells). Further, the “BAY 11-7085-induced apoptosis during readhesion” value in experiment [1] was “showed a moderate increase”. For the same molecule, the “inhibition of cell adhesion” value with HT-29 cells is “significant and rapid inhibition of cell adhesion at high concentrations”.
